Results on nine compounds are retold here after patent US7897602B2, “Indolinone compounds as kinase inhibitors” (Development Center for Biotechnology, priority 2009, dated 2011).

Data set [1] is described as follows: Body weight of mice in the COLO 205 tumor study. Type of data set: in vivo. The conditions noted are these: NOD/SCID mice with COLO 205 tumors; i.v. 5, 10 or 20 mg/kg qd × 14. How it is done: (§1) COLO 205 (1×10^6 cell/mouse) tumor cells were subcutaneously injected into the right flank of 5 week old male NOD/SCID mice (BioLASCO, Taiwan). Tumor volume was measured with a digital caliper once tumor was palpable (within 10 to 15 days after implantation). Compound treatment was started after 1-3 weeks when the tumors had reached an average volume of ˜50 to 100 mm^3. Mice were divided into 5 groups as listed in Table 4 below and were given intravenous injections with test compound at different dosage (5 mg/kg, 10 mg/kg, or 20 mg/kg), SU11248 (20 mg/kg, positive control), or vehicle control (DMSO:Cremophor:PBS (pH 7.4)=[…]) one time every day. The test compound, DCB-70055, was formulated in a solution of 5% DMSO, 10% Cremophor, and 85% PBS. The positive control, SU11248, was dissolved in 100% PBS. Body weights of the mice were measured every two to three days and the tumor sizes in different groups of mice were measured by digital caliper every two to three days.

The target of a further data set is T1, VEGFR2 kinase (Homo sapiens, UniProt P35968).
T1 construct: recombinant N-terminal 6×His-tagged VEGFR2 kinase domain construct expressed by baculovirus; 6xHis (N); made in house
T1 sequence (P35968 834-1162 limits assumed): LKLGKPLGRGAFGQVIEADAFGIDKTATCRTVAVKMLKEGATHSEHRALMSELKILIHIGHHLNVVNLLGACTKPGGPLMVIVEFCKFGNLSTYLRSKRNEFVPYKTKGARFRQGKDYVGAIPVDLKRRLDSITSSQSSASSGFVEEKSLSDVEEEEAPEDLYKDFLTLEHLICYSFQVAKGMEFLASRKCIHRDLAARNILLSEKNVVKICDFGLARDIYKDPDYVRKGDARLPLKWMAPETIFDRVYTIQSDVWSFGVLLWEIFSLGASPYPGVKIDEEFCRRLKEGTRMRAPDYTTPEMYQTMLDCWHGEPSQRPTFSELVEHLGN
Briefly: VEGFR2 kinase assay (33P incorporation into Poly(Glu-Tyr)). It counts as biochemical. To be noted: 500 nM test compound; read-out: Inhibition at 500 nM (%) VEGFr-2. The procedure, abridged: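 Recombinant baculovirus-expressed N-terminal His6-tagged VEGFR2 kinase domain (6.25 ng) phosphorylated poly(Glu-Tyr) 4:1 with 100 μM ATP plus [33P]-γ-ATP in MOPS pH 7.0, 30 °C, 30 min. Test compound was at 500 nM (4% DMSO). Filter-retained radioactivity relative to DMSO control gave % inhibition.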

The test system of another data set is COLO 205 tumor cells. Description: In vivo anti-cancer activity, COLO 205 subcutaneous tumor model. To be noted: COLO 205 s.c. tumors in NOD/SCID mice; i.v. 5, 10 or 20 mg/kg qd × 14. On the procedure:
as §1

For a further data set, the target named is T2, Flt3 kinase (Homo sapiens, UniProt P36888).
T2 construct: recombinant N-terminal 6×His-tagged Flt3 kinase domain construct expressed from baculovirus; 6xHis (N); made in house
T2 sequence (P36888 610-943 limits assumed): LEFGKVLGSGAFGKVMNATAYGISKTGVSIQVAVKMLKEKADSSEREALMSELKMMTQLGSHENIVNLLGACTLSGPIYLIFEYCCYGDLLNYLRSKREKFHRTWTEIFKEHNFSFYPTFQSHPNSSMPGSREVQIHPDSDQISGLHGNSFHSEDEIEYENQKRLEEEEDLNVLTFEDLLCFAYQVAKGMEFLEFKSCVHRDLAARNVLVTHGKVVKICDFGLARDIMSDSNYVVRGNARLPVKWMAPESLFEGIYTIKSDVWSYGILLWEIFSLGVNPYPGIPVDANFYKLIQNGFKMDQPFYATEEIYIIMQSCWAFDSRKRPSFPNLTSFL
Briefly: Flt3 kinase assay (33P incorporation into Poly(Glu-Tyr)). It counts as biochemical. To be noted: 100 nM test compound; read-out: Inhibition at 100 nM (%) Flt-3. The procedure, abridged: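 Baculovirus-expressed His-tagged Flt3 kinase domain (5 ng) with Poly(Glu-Tyr) 4:1 substrate, 100 μM ATP plus [33P]-γ-ATP, in MOPS pH 7.0 buffer, 30 min at 30 °C. Compound tested at a single 100 nM concentration; filter-bound radioactivity counted and percent inhibition calculated relative to DMSO control.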

`O=C(O)CCc1c(/C=C2\C(=O)Nc3ccc(F)cc32)[nH]c2c1C(=O)CCC2` [DCB-70055, (Z)-5-fluoro-3-((3-carboxyethyl-4-oxo-4,5,6,7-tetrahydro-1H-indol-2-yl)methylene)indolin-2-one]: the “weight loss (body weight)” value in data set [1] was “without inducing significant weight loss”. In addition, on VEGFR2 kinase, the inhibition (as a rule, how much of the control response was suppressed) at 0.5 µM worked out at 91.2%. Further, the “tumor growth in vivo” value in the data set with COLO 205 tumor cells was “inhibited tumor growth in vivo”. Moreover, the inhibition at 0.1 µM on Flt3 kinase is 86.5%.

As for `CCOC(=O)CCc1c(/C=C2\C(=O)Nc3ccc(NC(=O)c4ccccc4)cc32)[nH]c2c1C(=O)CCC2` [DCB-70096, (Z)-5-benazmido-3-((3-(3-ethoxy-3-oxopropyl)-4-oxo-4,5,6,7-tetrahydro-1H-indol-2-yl)methylene)indolin-2-one], on VEGFR2 kinase, the inhibition at 0.5 µM was determined as 44.2%. Also, the inhibition at 0.1 µM on Flt3 kinase came out at 5.9%.

For `O=C(O)CCc1c(/C=C2\C(=O)Nc3ccc([N+](=O)[O-])cc32)[nH]c2c1C(=O)CCC2` [DCB-70063, (Z)-5-nitro-3-((3-carboxyethyl-4-oxo-4,5,6,7-tetrahydro-1H-indol-2-yl)methylene)indolin-2-one], at VEGFR2 kinase, the inhibition at 0.5 µM is 82.7%. The inhibition at 0.1 µM at Flt3 kinase was 74.7%.

`O=C1Nc2ccc(F)cc2/C1=C/c1[nH]c2c(c1CCC(=O)N1CCOCC1)C(=O)CCC2` [DCB-70125, (Z)-5-fluoro-3-((3-(3-morpholino-3-oxopropyl)-4-oxo-4,5,6,7-tetrahydro-1H-indol-2-yl)methylene)indolin-2-one]: on VEGFR2 kinase, the inhibition at 0.5 µM stood at 83.4%. The inhibition at 0.1 µM at Flt3 kinase was determined as 94.6%.

Take `NS(=O)(=O)c1ccc2c(c1)/C(=C/c1[nH]c3c(c1CCC(=O)O)C(=O)CCC3)C(=O)N2` [DCB-70095, (Z)-5-sulfamoyl-3-((3-carboxyethyl-4-oxo-4,5,6,7-tetrahydro-1H-indol-2-yl)methylene)indolin-2-one]: at VEGFR2 kinase, the inhibition at 0.5 µM came to 64.4%. At Flt3 kinase, the inhibition at 0.1 µM turned out to be 27.2%.

For `O=C(O)CCc1c(/C=C2\C(=O)Nc3ccc(Br)cc32)[nH]c2c1C(=O)CCC2` [DCB-70057, (Z)-5-bromo-3-((3-carboxyethyl-4-oxo-4,5,6,7-tetrahydro-1H-indol-2-yl)methylene)indolin-2-one], the inhibition at 0.5 µM at VEGFR2 kinase was found to be 94.9%. On Flt3 kinase, the inhibition at 0.1 µM is 92.8%.

Turning to `CCOC(=O)CCc1c(/C=C2\C(=O)Nc3ccc(-c4cc5ccccc5s4)cc32)[nH]c2c1C(=O)CCC2` [DCB-70069, (Z)-5-(benzo[b]thiophen-2-yl)-3-((3-(3-ethoxy-3-oxopropyl)-4-oxo-4,5,6,7-tetrahydro-1H-indol-2-yl)methylene)indolin-2-one], the inhibition at 0.5 µM on VEGFR2 kinase turned out to be 11.4%. Also, at Flt3 kinase, the inhibition at 0.1 µM stood at 9.6%.

As for `CCOC(=O)CCc1c(/C=C2\C(=O)Nc3ccc(NC(=O)Nc4cccc5ccccc45)cc32)[nH]c2c1C(=O)CCC2` [DCB-70129, (Z)-ethyl 3-(2-((5-(3-naphthalen-1-ylureido)-2-oxoindolin-3-ylidene)methyl)-4-oxo-4,5,6,7-tetrahydro-1H-indol-3-yl)propanoate], the inhibition at 0.5 µM on VEGFR2 kinase came to 88%. In addition, the inhibition at 0.1 µM at Flt3 kinase came to 12.3%.

In the case of `O=C(O)CCc1c(/C=C2\C(=O)Nc3cc(-c4ccc(O)cc4)ccc32)[nH]c2c1C(=O)CCC2` [DCB-70075, (Z)-6-(4-hydroxyphenyl)-3-((3-carboxyethyl-4-oxo-4,5,6,7-tetrahydro-1H-indol-2-yl)methylene)indolin-2-one], the inhibition at 0.5 µM at VEGFR2 kinase was determined as 99.6%. The inhibition at 0.1 µM on Flt3 kinase is 63.5%.
